These results are taken from patent publication US6800297B2, “Porous COX-2 inhibitor matrices and methods of manufacture thereof” (Acusphere, Inc., priority 2000, dated 2004).

This series can be described thus: In vitro dissolution of rofecoxib in T80/PBS. In kind it is physicochemical. The note with it: after 1 hour; PBS containing 0.08% Tween 80, 200 mL; FIG. 2, FIG. 3. As to the method: Rofecoxib containing materials (either tablets, or bulk rofecoxib powder, or porous rofecoxib matrix powder) containing 20-31 mg of rofecoxib were added to 200 mL of 5% dextrose at room temperature in a 600 mL beaker. For bulk rofecoxib powder and porous rofecoxib matrix powder the resulting suspension was stirred for 5 minutes. For tablets (either marketed rofecoxib tablets (VIOXX®) or porous rofecoxib matrix tablet) the resulting suspension was stirred for 3-4 minutes beyond the time required for complete tablet disintegration. A sample of the suspension (containing 0.050-0.077 mg of rofecoxib) was then transferred to the dissolution vessel.
Dissolution studies for rofecoxib were conducted in PBS (phosphate buffered saline) containing 0.08% Tween 80 (T80/PBS). The dissolution vessel was a 600 mL beaker containing 200 mL of T80/PBS, and was stirred Samples were removed via pipet and centrifuged for 5 minutes at 10,000 rpm. Samples were analyzed by HPLC for rofecoxib. Control samples (for total rofecoxib concentration in the suspension vessel) were removed via pipet, and dissolved in acetonitrile, and the resulting solutions analyzed by HPLC for rofecoxib. […]

On to `CS(=O)(=O)c1ccc(C2=C(c3ccccc3)C(=O)OC2)cc1` [rofecoxib, 4-[4-(methylsulfonyl)phenyl]-3-phenyl-2(5H)-furanone], for which the “percent dissolved (relative to total rofecoxib concentration in the suspension vessel)” value was 41%.
